In one assay the test system is KB. Description: Antineoplastic activity against human KB cells. It is filed as functional, cell-based.
Assay [1] relates to P388. Description: Antineoplastic activity against mouse P388 cells allografted in BDF1 mouse administered qd for 1 to 9 days starting 24 hrs after tumor cell implantation. The assay is classed as functional, cell-based.
Assay [2] concerns L1210. Nature of the assay: Antineoplastic activity against mouse L1210 cells allografted in BDF1 mouse administered qd for 1 to 9 days starting 24 hrs after tumor cell implantation. The assay is classed as functional, cell-based.
Assay [3] concerns P388. Nature of the assay: Antineoplastic activity against mouse P388 cells allografted in BDF1 mouse at 800 mg/kg administered qd for 1 to 9 days starting 24 hrs after tumor cell implantation relative to control. It is filed as functional.
The test system of assay [4] is L1210. Nature of the assay: Antineoplastic activity against mouse L1210 cells allografted in BDF1 mouse at 50 mg/kg administered qd for 1 to 9 days starting 24 hrs after tumor cell implantation relative to control. The assay is classed as functional.

Calls of active or inactive are those of the source. The calls are words filed in the database; no cut-off is given here.

This note sets out measurements from ChEMBL document CHEMBL3228046, “A structural modification study of procarbazine” (1979).

As for `CC(C)NC(=O)c1ccc(CON(C)C(=O)OCc2ccccc2)cc1`, the outcome in the assay with KB, in the assay with P388 [1] and in the assay on L1210 [2] was inactive.
In the case of `CO/[N+](=C\c1ccccc1)Cc1ccc(C(=O)NC(C)C)cc1`, the outcome in the assay with KB, in the assay with P388 [1] and in the assay with L1210 [2] was inactive.
Take `CNC(=S)NCc1ccc(C(=O)NC(C)C)cc1`: the outcome in the assay with KB, with P388 [1] and with L1210 [2] was inactive.
As to `CNC(=S)Nc1ccc(C(=O)NC(C)C)cc1`, the outcome in the assay on KB, with P388 [1] and with L1210 [2] was inactive.
On to `CONCc1ccc(C(=O)NC(C)C)cc1`, for which the result in the assay on KB, in the assay on P388 [1] and in the assay on L1210 [2] was inactive.
As for `CNNCc1c[nH]c(=O)[nH]c1=O`, the result in the assay on KB, in the assay with P388 [1] and in the assay with L1210 [2] was inactive.
With `CC(C)NC(=O)c1ccc(CONC(=O)OCc2ccccc2)cc1`, the result in the assay on KB, in the assay with P388 [1] and in the assay on L1210 [2] was inactive.
Regarding `CNNCc1ccc(/C=N/NC(N)=S)cc1`, the result in the assay on KB, in the assay on P388 [1] and with L1210 [2] was inactive.
Compound `CC(C)NC(=O)c1ccc(C/[N+]([O-])=C/c2ccccc2)cc1` had a T/C in the assay with P388 [3] of 153.
`CNOCc1ccc(C(=O)NC(C)C)cc1`: the outcome with KB, in the assay on P388 [1] and with L1210 [2] was inactive.
Compound `CNC(=O)Nc1ccc(C(=O)NC(C)C)cc1` came in with a T/C with L1210 [4] of 132.
On to `CNC(=O)NCc1ccc(C(=O)NC(C)C)cc1`, for which the outcome in the assay on KB, in the assay with P388 [1] and in the assay on L1210 [2] was inactive.
Consider `CC(C)NC(=O)c1ccc(CBr)cc1`, for which the result with KB was Active.
